Source: patent EP0252525B1, “Alpha-amylase assay using modified oligosaccharide and process for producing said modified oligosaccharide” (WAKO PURE CHEMICAL INDUSTRIES, LTD, priority 1986, dated 1988)
Several values for one entry are separate records, joined by “and”; a condition that tells them apart may be missing. Equal entries are not always repeated.

Columns and labels:
Type in all cases: biochemical
[1] = molecular target: T1, human pancreatic α-amylase (HPA) (Homo sapiens, UniProt P04746); assay: Hydrolysis rate of substrates by α-amylase (relative to G5P); conditions: substrate 1.0 mM, pH 7, value of G5P taken as 1
T1 sequence (P04746 16-511): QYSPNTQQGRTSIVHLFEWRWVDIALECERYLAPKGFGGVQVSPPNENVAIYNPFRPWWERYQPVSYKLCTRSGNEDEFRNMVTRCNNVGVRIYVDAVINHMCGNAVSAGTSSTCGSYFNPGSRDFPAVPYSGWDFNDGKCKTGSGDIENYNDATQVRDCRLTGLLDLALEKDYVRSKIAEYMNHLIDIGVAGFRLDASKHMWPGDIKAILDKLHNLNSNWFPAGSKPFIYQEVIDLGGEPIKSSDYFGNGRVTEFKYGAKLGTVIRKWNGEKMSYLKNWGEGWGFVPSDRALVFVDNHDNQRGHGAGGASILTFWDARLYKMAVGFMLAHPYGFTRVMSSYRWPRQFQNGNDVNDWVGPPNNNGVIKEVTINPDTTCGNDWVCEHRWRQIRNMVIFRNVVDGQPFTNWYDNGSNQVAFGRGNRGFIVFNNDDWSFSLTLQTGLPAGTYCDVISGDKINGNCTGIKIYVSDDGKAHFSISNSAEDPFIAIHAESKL
Experimental: (§1) The above-mentioned advantages can be shown by using the following oligosaccharides: [drawing 6] n = 2: BG4P n = 3: BG5P (the present invention) n = 4: BG6P n = 5: BG7P [drawing 7] n = 2: G4P n = 3: G5P (standard) n = 4: G6P n = 5: G7P [drawing 8] n = 2: BDG4P n = 3: BDG5P n = 4: BDG6P n = 5: BDG7P The hydrolysis rate is measured by using human pancreatic α-amylase (HPA) or human salivary α-amylase (HSA) for each substrate (1.0 mM) at pH 7, and evaluating by means of relative values by taking the value of G5P as 1.

[2] = molecular target: T2, human salivary α-amylase (HSA) (Homo sapiens, UniProt P0DUB6); assay: as above; conditions: substrate 1.0 mM, pH 7, value of G5P taken as 1
T2 sequence (P0DUB6 16-511): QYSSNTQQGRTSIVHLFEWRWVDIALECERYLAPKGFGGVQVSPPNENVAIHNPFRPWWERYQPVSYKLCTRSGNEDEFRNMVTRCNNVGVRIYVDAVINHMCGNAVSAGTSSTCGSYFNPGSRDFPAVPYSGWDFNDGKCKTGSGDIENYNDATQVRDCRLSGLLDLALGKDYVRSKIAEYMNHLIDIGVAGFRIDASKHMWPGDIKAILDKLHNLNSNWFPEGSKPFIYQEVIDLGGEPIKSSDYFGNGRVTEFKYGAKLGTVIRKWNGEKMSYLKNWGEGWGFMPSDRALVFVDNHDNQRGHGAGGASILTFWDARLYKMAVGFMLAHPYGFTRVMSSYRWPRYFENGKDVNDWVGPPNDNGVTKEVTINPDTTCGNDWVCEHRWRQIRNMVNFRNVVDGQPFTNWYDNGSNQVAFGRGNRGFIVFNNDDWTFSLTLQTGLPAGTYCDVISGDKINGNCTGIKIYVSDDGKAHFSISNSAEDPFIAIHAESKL
Experimental: as §1

HPA [3] = molecular target: T3, HPA (Homo sapiens, UniProt P04746); assay: Km determination (Lineweaver-Burk plot, products measured by HPLC); conditions: 50 mM BES/NaOH buffer pH 7.6, 37°C, 5 min
T3 sequence (P04746 16-511): T1 sequence (P04746 16-511)
Experimental: The amounts of the products were measured with HPLC.

HPA [4] = molecular target: T3, HPA; assay: Binding mode (distribution of hydrolysis products) by HPLC; conditions: for Hydrolysis product G2P: share of product G2P; for Hydrolysis product G3P: share of product G3P; for Hydrolysis product G4P: share of product G4P; for Hydrolysis product GP: share of product GP
Experimental: (§2) The binding mode of each substrate were measured with high-performance liquid chromatography (HPLC) as described above.

HSA = molecular target: T4, HSA (Homo sapiens, UniProt P0DUB6); assay: as above; conditions: for Hydrolysis product G2P: share of product G2P; for Hydrolysis product G3P: share of product G3P; for Hydrolysis product G4P: share of product G4P; for Hydrolysis product GP: share of product GP
T4 sequence (P0DUB6 16-511): T2 sequence (P0DUB6 16-511)
Experimental: as §2

glucoamylase = assay: Action of glucoamylase on the modified oligosaccharide

Structure (SMILES) | hydrolysis rate (relative value) [1] | hydrolysis rate (relative value) [2] | Km (HPA [3]) | Hydrolysis product G2P (HPA [4]) | Hydrolysis product G3P (HPA [4]) | Hydrolysis product G4P (HPA [4]) | Hydrolysis product GP (HPA [4]) | Hydrolysis product G2P (HSA) | Hydrolysis product G3P (HSA) | Hydrolysis product G4P (HSA) | Hydrolysis product GP (HSA) | action of glucoamylase on the substrate (glucoamylase)
O=[N+]([O-])c1ccc(O[C@H]2O[C@H](CO)[C@@H](O[C@H]3O[C@H](CO)[C@@H](O[C@H]4O[C@H](CO)[C@@H](O[C@H]5O[C@H](CO)[C@@H](O[C@H]6O[C@H](CO)[C@@H](O)[C@H](O)[C@H]6O)[C@H](O)[C@H]5O)[C@H](O)[C@H]4O)[C@H](O)[C@H]3O)[C@H](O)[C@H]2O)cc1 [Substrate G5P] | 1.0 | 1.0 | 360 µM and 358 µM | 73% | 12% | 0% | 15% | 83% | 11% | 0% | 6% | –
O=[N+]([O-])c1ccc(O[C@H]2O[C@H](CO)[C@@H](O[C@H]3O[C@H](CO)[C@@H](O[C@H]4O[C@H](CO)[C@@H](O[C@H]5O[C@H](CO)[C@@H](O[C@H]6O[C@H](CBr)[C@@H](O)[C@H](O)[C@H]6O)[C@H](O)[C@H]5O)[C@H](O)[C@H]4O)[C@H](O)[C@H]3O)[C@H](O)[C@H]2O)cc1 [BrG5P] | – | – | – | – | – | – | – | – | – | – | – | not acted by glucoamylase
O=[N+]([O-])c1ccc(O[C@H]2O[C@H](CO)[C@@H](O[C@H]3O[C@H](CO)[C@@H](O[C@H]4O[C@H](CO)[C@@H](O[C@H]5O[C@H](CO)[C@@H](O[C@H]6O[C@H](COCc7ccccc7)[C@@H](O)[C@H](O)[C@H]6O)[C@H](O)[C@H]5O)[C@H](O)[C@H]4O)[C@H](O)[C@H]3O)[C@H](O)[C@H]2O)cc1 [BG5P, p-nitrophenyl O-(6-O-benzyl)-α-D-glycopyranosyl-(1→4)-O-α-D-glucopyranosyl-(1→4)-O-α-D-glucopyranosyl-(1→4)-O-α-D-glucopyranosyl-(1→4)-α-D-glucopyranoside] | 1.4 | 1.4 | 110 µM and 106 µM | 95% | 0% | 0% | 5% | 98% | 0% | 0% | 2% | not acted by glucoamylase
